Where two headings read alike, the source gives them in different places.

This passage reports remaining binding, remaining activity and Percent control results from paper PMC4858680, “A platinum-based hybrid drug design approach to circumvent acquired resistance to molecular targeted tyrosine kinase inhibitors” (Scientific Reports, 2016).

One test has as its target T1, IGF1R (Homo sapiens, UniProt P08069).
T1 construct: purchased DiscoveRx KINOMEscan
It counts as binding. The note with it: for remaining binding at 10 µM: read-out: Percent control.

In the next test the target is T2, EPHA7 (Homo sapiens, UniProt Q15375).
T2 construct: purchased DiscoveRx KINOMEscan
It counts as binding. The settings on record: for remaining binding at 10 µM: read-out: Percent control.

Test [1] has as its target T3, JAK2(JH1domain-catalytic) (Homo sapiens, UniProt O60674).
T3 construct: JAK2(JH1domain-catalytic); purchased DiscoveRx KINOMEscan
In kind it is binding. The settings on record: for remaining binding at 10 µM: read-out: Percent control; for Percent control: 10 μM.

A further test addresses T4, TRKB (Homo sapiens, UniProt Q16620).
T4 construct: purchased DiscoveRx (KINOMEscan service)
It counts as binding. The settings on record: for remaining binding at 10 µM: read-out: Percent control.

Another test concerns the target KIT(A829P) (Homo sapiens, UniProt P10721, A829P). The test is described as follows: biochemical. The settings on record: read-out: Percent control.
For another test, the target named is T5, SRMS (Homo sapiens, UniProt Q9H3Y6).
T5 construct: purchased DiscoveRx (KINOMEscan service)
It counts as binding. The note with it: for remaining binding at 10 µM: read-out: Percent control.

For a further test, the target named is T6, EPHA3 (Homo sapiens, UniProt P29320).
T6 construct: purchased DiscoveRx KINOMEscan
T6 sequence (P29320 21-983): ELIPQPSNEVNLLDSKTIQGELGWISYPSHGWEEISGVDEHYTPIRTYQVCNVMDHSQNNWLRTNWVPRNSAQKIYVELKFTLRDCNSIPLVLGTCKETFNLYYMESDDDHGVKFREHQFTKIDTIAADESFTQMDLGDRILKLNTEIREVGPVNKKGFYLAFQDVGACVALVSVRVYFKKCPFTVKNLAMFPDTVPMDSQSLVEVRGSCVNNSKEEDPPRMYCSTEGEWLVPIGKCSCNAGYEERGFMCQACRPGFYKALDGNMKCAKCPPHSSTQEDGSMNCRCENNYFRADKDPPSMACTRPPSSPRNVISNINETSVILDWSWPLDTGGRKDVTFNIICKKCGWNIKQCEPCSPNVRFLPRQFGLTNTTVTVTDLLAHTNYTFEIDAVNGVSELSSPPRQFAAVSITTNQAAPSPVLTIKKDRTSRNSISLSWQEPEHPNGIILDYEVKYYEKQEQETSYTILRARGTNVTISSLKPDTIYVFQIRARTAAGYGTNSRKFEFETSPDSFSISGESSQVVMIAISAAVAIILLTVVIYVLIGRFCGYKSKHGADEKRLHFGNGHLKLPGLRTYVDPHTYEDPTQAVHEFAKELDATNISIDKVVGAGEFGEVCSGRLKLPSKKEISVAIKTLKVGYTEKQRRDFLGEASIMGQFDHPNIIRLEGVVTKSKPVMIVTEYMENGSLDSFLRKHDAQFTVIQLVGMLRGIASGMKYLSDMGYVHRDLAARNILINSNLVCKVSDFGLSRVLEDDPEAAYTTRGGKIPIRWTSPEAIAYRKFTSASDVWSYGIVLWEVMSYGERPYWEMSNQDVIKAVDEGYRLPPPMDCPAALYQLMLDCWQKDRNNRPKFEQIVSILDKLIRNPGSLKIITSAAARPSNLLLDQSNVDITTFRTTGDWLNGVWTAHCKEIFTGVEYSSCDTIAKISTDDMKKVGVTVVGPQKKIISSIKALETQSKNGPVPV
It counts as binding. The settings on record: for remaining binding at 10 µM: read-out: Percent control.

The target of test [2] is T7, JAK3(JH1domain-catalytic) (Homo sapiens, UniProt P52333).
T7 construct: JAK3(JH1domain-catalytic); purchased DiscoveRx KINOMEscan
In kind it is binding. The note with it: for remaining binding at 10 µM: read-out: Percent control.

The target in a further test is T8, BLK (Homo sapiens, UniProt P51451).
T8 construct: purchased DiscoveRx KINOMEscan
It counts as binding. The settings on record: for remaining binding at 10 µM: read-out: Percent control; for Percent control: BLK, 10 μM.

A further test deals with T9, INSR (Homo sapiens, UniProt P06213).
T9 construct: purchased DiscoveRx KINOMEscan
It counts as binding. The note with it: for remaining binding at 10 µM: read-out: Percent control.

The next test has as its target T10, FGR (Homo sapiens, UniProt P09769).
T10 construct: purchased DiscoveRx KINOMEscan
In kind it is binding. The note with it: for remaining binding at 10 µM: read-out: Percent control; for Percent control: 10 μM.

Test [3] deals with T11, TYK2(JHSdomain-pseudokinase) (Homo sapiens, UniProt P29597).
T11 construct: TYK2(JHSdomain-pseudokinase); purchased DiscoveRx Corporation (KINOMEscan service)
In kind it is binding. The note with it: for remaining binding at 10 µM: read-out: Percent control; for Percent control: 10 μM.

The target of another test is PDGFRA (Homo sapiens, UniProt P16234). The test is described as follows: biochemical. The settings on record: read-out: Percent control.
A further test addresses KIT(L576P) (Homo sapiens, UniProt P10721, L576P). The settings on record: 10 μM.
A further test has as its target RET(M918T) (Homo sapiens, UniProt P07949, M918T). The settings on record: 10 μM.
A further test addresses T12, ZAP70 (Homo sapiens, UniProt P43403).
T12 sequence (P43403 1-619): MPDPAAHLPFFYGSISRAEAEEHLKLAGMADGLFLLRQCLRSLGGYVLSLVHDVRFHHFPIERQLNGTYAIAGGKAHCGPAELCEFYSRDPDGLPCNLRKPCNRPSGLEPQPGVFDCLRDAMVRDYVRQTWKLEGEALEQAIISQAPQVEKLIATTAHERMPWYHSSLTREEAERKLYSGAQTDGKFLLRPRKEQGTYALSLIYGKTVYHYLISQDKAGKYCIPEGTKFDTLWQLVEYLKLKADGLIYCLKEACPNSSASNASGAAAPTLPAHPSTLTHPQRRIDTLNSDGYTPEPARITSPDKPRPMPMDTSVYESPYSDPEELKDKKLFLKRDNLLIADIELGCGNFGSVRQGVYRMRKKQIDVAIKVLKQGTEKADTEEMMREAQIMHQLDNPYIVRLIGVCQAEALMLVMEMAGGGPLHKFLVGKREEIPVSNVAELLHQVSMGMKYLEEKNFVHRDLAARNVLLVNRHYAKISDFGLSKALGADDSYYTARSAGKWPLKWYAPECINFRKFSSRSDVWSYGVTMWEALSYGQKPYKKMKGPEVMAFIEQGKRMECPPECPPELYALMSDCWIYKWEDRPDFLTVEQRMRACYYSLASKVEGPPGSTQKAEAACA
The note with it: 10 μM.

The mark [4] stands for this setting: JAK3(JH1domain-catalytic), 10 μM.

T11 sequence (P29597 589-875 limits assumed): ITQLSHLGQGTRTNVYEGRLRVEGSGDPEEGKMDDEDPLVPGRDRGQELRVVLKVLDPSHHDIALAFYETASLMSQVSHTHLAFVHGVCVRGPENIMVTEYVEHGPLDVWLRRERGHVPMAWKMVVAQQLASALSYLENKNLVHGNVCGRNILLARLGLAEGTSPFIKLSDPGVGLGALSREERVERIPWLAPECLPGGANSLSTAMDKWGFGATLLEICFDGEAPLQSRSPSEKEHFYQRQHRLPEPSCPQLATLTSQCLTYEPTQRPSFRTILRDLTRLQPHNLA
RET(M918T), sequence (P07949 29-1114 M918T): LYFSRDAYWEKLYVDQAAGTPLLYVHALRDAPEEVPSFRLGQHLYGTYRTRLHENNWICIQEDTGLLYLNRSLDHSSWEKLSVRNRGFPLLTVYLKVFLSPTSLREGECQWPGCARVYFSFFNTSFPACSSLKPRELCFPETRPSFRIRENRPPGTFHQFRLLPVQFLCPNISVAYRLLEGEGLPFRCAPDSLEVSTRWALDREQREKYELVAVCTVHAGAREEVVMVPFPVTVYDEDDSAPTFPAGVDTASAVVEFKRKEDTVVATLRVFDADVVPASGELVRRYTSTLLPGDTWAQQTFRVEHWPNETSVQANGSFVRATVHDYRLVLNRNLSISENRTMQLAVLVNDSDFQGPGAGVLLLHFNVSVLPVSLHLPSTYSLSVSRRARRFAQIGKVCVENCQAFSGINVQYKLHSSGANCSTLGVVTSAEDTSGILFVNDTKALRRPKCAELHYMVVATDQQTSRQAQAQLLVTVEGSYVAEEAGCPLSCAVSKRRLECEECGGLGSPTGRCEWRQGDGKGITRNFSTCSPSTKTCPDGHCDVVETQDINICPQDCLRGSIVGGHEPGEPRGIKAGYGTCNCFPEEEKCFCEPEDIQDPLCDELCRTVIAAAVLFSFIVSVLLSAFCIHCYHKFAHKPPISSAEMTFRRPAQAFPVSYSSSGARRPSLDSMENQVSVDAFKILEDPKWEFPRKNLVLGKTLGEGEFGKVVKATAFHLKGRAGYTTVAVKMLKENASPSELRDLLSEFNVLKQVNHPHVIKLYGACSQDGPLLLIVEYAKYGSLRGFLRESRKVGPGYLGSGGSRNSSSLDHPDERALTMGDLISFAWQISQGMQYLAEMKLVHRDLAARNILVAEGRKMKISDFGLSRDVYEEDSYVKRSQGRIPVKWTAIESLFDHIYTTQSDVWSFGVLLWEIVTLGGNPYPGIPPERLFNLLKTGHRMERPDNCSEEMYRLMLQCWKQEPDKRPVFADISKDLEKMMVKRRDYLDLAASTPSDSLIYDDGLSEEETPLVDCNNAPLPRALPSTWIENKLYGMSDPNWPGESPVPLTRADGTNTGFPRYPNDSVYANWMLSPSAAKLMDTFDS
T10 sequence (P09769 whole entry): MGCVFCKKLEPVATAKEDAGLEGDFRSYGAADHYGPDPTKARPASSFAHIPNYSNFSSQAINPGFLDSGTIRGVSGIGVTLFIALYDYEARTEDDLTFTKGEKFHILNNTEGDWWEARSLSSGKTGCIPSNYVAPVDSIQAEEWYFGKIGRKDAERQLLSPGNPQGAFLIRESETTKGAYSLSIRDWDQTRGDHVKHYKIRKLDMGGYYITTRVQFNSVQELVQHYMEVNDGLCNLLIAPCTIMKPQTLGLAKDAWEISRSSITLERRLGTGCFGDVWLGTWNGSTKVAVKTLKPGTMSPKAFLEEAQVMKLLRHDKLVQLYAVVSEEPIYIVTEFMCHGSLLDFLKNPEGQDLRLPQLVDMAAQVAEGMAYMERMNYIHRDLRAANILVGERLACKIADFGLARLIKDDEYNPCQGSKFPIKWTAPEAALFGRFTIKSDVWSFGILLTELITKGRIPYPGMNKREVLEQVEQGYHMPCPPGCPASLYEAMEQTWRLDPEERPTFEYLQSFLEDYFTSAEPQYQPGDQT
T4 sequence (Q16620 32-822): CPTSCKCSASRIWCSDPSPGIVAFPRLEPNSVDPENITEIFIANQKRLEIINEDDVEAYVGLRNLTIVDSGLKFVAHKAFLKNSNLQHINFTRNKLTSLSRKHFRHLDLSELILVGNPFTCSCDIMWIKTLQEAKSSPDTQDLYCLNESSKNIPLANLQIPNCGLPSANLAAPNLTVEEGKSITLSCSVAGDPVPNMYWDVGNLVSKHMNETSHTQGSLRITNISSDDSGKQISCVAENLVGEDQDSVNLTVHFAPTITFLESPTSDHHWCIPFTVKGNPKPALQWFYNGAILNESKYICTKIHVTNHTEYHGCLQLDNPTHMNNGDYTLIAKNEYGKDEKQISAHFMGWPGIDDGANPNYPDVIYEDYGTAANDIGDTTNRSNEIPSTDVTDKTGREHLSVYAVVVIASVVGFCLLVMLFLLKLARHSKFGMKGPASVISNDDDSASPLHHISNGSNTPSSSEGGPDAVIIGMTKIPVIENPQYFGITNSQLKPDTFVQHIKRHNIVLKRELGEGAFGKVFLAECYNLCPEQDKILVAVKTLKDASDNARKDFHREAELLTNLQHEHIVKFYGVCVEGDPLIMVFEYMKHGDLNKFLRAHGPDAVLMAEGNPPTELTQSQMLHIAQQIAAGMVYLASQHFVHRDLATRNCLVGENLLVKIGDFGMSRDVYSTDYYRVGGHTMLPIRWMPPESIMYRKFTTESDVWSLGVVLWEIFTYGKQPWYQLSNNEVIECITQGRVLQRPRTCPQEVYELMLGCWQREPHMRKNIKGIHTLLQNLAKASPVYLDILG
KIT(A829P), sequence (P10721 26-976 A829P): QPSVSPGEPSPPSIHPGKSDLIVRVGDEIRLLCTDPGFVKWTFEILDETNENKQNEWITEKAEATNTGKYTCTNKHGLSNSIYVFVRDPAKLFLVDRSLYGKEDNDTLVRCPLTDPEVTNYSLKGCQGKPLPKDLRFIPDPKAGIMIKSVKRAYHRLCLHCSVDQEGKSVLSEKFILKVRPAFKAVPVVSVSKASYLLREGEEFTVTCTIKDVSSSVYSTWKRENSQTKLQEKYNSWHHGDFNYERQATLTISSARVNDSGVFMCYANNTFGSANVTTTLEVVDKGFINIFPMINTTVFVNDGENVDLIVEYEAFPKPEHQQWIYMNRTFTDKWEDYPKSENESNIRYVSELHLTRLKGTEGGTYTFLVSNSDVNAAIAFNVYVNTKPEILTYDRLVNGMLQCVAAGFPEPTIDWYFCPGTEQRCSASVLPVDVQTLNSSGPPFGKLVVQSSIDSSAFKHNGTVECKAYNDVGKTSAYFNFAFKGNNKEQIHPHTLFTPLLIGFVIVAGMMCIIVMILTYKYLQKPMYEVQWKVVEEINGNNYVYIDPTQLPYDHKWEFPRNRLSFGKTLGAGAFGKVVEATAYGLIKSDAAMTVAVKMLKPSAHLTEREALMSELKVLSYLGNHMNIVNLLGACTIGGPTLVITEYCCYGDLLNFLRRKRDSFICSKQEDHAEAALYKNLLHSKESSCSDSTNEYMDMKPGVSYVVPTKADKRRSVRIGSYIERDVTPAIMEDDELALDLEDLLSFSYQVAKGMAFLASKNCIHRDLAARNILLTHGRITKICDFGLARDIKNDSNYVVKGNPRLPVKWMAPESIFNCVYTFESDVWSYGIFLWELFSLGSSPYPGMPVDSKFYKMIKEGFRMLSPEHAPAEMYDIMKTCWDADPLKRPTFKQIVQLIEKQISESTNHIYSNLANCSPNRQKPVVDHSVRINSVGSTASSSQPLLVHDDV
T9 sequence (P06213 28-1382): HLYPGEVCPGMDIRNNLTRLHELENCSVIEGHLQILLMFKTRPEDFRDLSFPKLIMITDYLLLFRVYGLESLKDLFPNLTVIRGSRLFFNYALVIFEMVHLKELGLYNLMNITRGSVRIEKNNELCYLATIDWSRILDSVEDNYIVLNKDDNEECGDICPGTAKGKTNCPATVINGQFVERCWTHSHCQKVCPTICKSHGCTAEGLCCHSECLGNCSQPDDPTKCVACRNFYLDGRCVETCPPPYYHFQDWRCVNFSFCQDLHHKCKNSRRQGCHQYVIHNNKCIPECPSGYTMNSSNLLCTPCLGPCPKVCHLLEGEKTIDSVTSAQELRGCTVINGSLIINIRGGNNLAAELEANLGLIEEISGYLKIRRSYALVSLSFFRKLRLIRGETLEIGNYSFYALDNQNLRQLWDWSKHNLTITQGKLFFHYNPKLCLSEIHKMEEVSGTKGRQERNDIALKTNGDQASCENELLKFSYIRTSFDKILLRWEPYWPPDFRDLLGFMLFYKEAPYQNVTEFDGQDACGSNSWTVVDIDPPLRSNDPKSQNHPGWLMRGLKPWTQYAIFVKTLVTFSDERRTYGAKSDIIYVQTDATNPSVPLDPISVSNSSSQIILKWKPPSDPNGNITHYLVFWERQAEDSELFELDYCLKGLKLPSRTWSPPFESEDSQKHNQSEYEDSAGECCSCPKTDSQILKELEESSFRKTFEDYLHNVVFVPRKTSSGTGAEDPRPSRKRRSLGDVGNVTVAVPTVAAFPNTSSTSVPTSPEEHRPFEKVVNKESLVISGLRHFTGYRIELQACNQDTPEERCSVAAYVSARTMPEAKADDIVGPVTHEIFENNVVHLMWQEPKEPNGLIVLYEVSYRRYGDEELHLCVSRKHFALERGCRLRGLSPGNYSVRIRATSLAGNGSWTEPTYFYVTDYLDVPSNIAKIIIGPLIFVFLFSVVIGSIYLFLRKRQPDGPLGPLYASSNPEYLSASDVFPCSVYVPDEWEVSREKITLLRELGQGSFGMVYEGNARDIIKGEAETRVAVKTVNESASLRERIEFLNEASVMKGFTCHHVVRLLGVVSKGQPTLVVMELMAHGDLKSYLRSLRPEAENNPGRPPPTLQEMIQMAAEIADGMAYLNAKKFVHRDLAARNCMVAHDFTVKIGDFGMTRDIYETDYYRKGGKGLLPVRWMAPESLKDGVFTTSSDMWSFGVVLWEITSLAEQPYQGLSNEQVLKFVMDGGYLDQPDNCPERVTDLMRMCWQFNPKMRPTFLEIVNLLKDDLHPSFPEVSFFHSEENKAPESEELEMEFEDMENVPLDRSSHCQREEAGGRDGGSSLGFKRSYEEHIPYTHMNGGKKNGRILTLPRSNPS
KIT(L576P), sequence (P10721 26-976 L576P): as the sequence (P10721 26-976 A829P) above, with L551P, P804A counted along it

Take `C#Cc1cccc(Nc2ncnc3cc(OCCOC)c(OCCOC)cc23)c1` [Erlotinib]: the remaining binding at 10 µM on IGF1R was determined as 100%; on EPHA7 it was 12.3%; in test [1] it was 27%; at TRKB, 100%; on SRMS it was 100%; on EPHA3, 19.4%. The remaining binding at 10 µM in test [2] turned out to be 6.5%; at BLK, 1.9%; at INSR it was 100%; on FGR, 9.9%; in test [3], 19.4%. Besides, the remaining activity at 10 µM on KIT(A829P) stood at 100%; at PDGFRA, 15.3%.
As to `Cc1ccc(NC(=O)c2ccc(CN3CCN(C)CC3)cc2)cc1Nc1nccc(-c2cccnc2)[n+]1[Pt-2]1([Cl])[NH2+]C2CCCCC2[NH2+]1` (stereo not shown) [1b, oxaliplatin-imatinib], the Percent control is listed as 0.9% on KIT(L576P); 100% at IGF1R (IGF1R, 10 μM); 88% on RET(M918T); 100% at EPHA7 (EPHA7, 10 μM); 100% in test [1]; 100% at ZAP70. The Percent control on TRKB (TRKB, 10 μM) is on record as 100%; at SRMS (SRMS, 10 μM), 98%; on EPHA3 (EPHA3, 10 μM), 64%; in test [2] (setting [4]), 55%; on BLK, 12%; at INSR (INSR, 10 μM), 92%. The Percent control on FGR amounted to 80%; in test [3], 100%.
As to `COc1cc2c(Nc3ccc(Br)cc3F)ncnc2cc1OCC1CCN(C)CC1` [Vandetanib, reference compound], the remaining binding at 10 µM was determined as 100% on IGF1R (IGF1R, 10 μM); 19.4% on EPHA7 (EPHA7, 10 μM); 100% in test [1]; 100% on TRKB (TRKB, 10 μM); 16% on SRMS (SRMS, 10 μM); 16.7% on EPHA3 (EPHA3, 10 μM). Also, the remaining binding at 10 µM in [2] (setting [4]) was 100%; at BLK it was 0.7%; at INSR (INSR, 10 μM), 100%; at FGR it was 2.6%; in test [3] it was 100%. Further, the results for the remaining activity at 10 µM at KIT(A829P) and at PDGFRA were 0.3% and 2.2%, respectively.
For `COc1cc2c(Nc3ccc(Br)cc3F)[n+]([Pt-2]3([Cl])[NH2+]C4CCCCC4[NH2+]3)cnc2cc1OCC1CCN(C)CC1` (stereo not shown) [3b, oxaliplatin-vandetanib], the Percent control on KIT(L576P) stood at 2.2%; on IGF1R (IGF1R, 10 μM) it was 100%; at EPHA7 (EPHA7, 10 μM) it was 79%; in test [1], 100%; at ZAP70, 99%; at TRKB (TRKB, 10 μM), 72%. Besides, the Percent control amounted to 95% on SRMS (SRMS, 10 μM); 30% on EPHA3 (EPHA3, 10 μM); 100% in test [2] (setting [4]); 1.4% on BLK; 72% on INSR (INSR, 10 μM); 33% at FGR. The Percent control in [3] was 100%.
Regarding `C#Cc1cccc(Nc2c3cc(OCCOC)c(OCCOC)cc3nc[n+]2[Pt@SP2-2]([NH3+])([NH3+])[Cl])c1` [2a, cisplatin-erlotinib], the Percent control worked out at 73% on KIT(L576P); 86% at IGF1R (IGF1R, 10 μM); 61% at RET(M918T); 67% at EPHA7 (EPHA7, 10 μM); 46% in test [1]; 89% on ZAP70. Besides, the Percent control on TRKB (TRKB, 10 μM) stood at 95%; on SRMS (SRMS, 10 μM), 94%; on EPHA3 (EPHA3, 10 μM), 60%; in [2] (setting [4]), 28%; on BLK, 41%; at INSR (INSR, 10 μM) it was 85%. Further, the Percent control at FGR was 81%; in [3], 100%.
For `Cc1ccc(NC(=O)c2ccc(CN3CCN(C)CC3)cc2)cc1Nc1nccc(-c2cccnc2)n1` [Imatinib, reference compound], the Percent control amounted to 100% at IGF1R (IGF1R, 10 μM); 100% at RET(M918T); 100% at EPHA7 (EPHA7, 10 μM); 100% on ZAP70; 100% on TRKB (TRKB, 10 μM); 100% at SRMS (SRMS, 10 μM). In addition, the Percent control on EPHA3 (EPHA3, 10 μM) is 100%; in test [2] (setting [4]) it was 100%; on BLK, 4.9%; at INSR (INSR, 10 μM), 100%; at FGR it was 19.4%. In addition, the remaining binding at 10 µM in test [1] was determined as 100%; in test [3] it was 46.5%. In addition, the remaining activity at 10 µM on KIT(A829P) was determined as 0.1%; on PDGFRA, 0.3%.
